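Where inhibition never reached the appropriate level, the endpoint shown equals the highest concentration tested. Otherwise, values were interpolated linearly from a five-concentration, 48-hour dose response in 96-well plates. At the GI50, growth is halved. At the TGI there is no net growth.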 Where a SMILES comes first, the peptide text is derived from it. [ ]: non-standard residue; d: D form. The star is where a group is joined. X13 = OC[C@H](CC1CCCCC1)N*; dIva = CC[C@@](C)(N)C(=O)O; Aib = CC(C)(N)C(=O)O

The experiment concerns MDA-MB-468 breast. In words: growth of human tumour cells (NCI), 48 h.
Turning to `CC[C@@](C)(NC(=O)C(C)(C)NC(=O)[C@@H](NC(=O)[C@@H]1CCCN1C(=O)C(C)(C)NC(=O)[C@H](CC(C)C)NC(=O)CNC(=O)C(C)(C)NC(=O)[C@@H](NC(=O)C(C)(C)NC(=O)[C@H](CCC(N)=O)NC(=O)[C@H](C)NC(=O)C(C)(C)NC(=O)[C@H](C)NC(=O)C(C)(C)NC(=O)[C@H](C)NC(=O)C(C)(C)NC(C)=O)C(C)C)C(C)C)C(=O)N[C@@H](CCC(N)=O)C(=O)N[C@@H](CCC(N)=O)C(=O)N[C@H](CO)CC1CCCCC1` (Ac-[Aib]A[Aib]A[Aib]AQ[Aib]V[Aib]GL[Aib]PV[Aib][dIva]QQ-X13), the GI50 was 0.747 µM and the TGI was 4.08 µM.

Turning to `CC(C)(C)c1nn(-c2ccccc2)c2c1C(=O)CSC(c1ccccc1Cl)N2` (stereo unspecified), the GI50 is 1.01 µM and the TGI was determined as 12.1 µM.

`CC1(C)N=C(N)N=C(N)N1c1ccc(OCCCCOc2ccc(S(=O)(=O)F)cc2)c(Cl)c1`: the GI50 was 0.188 µM and the TGI came out at 8.8 µM.

Values taken from PubChem BioAssay (NCI).
